Key:
[1] = test system: NF-κB-dependent reporter gene transcription in HUVECs; experiment: NF-κB reporter gene assay (luciferase); format: cell-based, human; conditions: 400 µM, TNF-α 10 ng/ml
Description: NF-κB dependent reporter gene transcription was measured as per the instructions of the luciferase assay kit (Promega, USA). Briefly, human endothelial cells ([…]) were plated in 96-well plates. HUVECs were transiently transfected by electroporation with a NF-κB-containing luciferase reporter gene plasmid for 24 h. After transfection, cells were washed and treated with 400 µM MPTAG for 24 h. For the TNF-α stimulation, cells were treated with 10 ng/ml of TNF-α for another 24 h. Supernatants after cell lysis were assayed for luciferase activity. The mean value for cells treated with no MPTAG and no TNF-α was set to 1, and -fold differences were determined by comparing values against this set value. Cells were co-transfected with a control vector expressing β-galactosidase under SV40 promoter to normalize transfection efficiency.

[2] = test system: NF-κBp65 subunit translocation in HUVECs; experiment: NF-κB p65 nuclear translocation (western blot, immunocytochemistry); format: cell-based, human; conditions: 400 µM, TNF-α-induced
Description: The endothelial cells were subjected to the indicated treatments followed by induction with TNF-α for indicated time points or 30 mins. The cells were then washed with PBS and dislodged using a cell scraper. The cytoplasmic and nuclear extracts were prepared as described previously, [46].
To study the effect of MPTAG on nuclear translocation of NF-κBp65 subunit in presence of TNF-α-stimulation, the HUVECs were seeded on gelatinized glass bottom 6-well plate at a cell density of 0.3×10^6 cells/ml. Following day, media was changed and MPTAG was added to the cells for 2 h. After the end of drug pretreatment, cells were induced with TNF-α for 45 mins. The cell monolayers were washed with PBS (phosphate buffered saline containing 1 mM CaCl2 and 1 mM MgCl2) and were fixed in a solution, containing 4% paraformaldehyde in 120 mM sodium phosphate buffer pH 7.2–7.4, for 20 mins at room temperature. The cells were then permeabilized using a high salt buffer, containing 0.45 M NaCl and 20 mM sodium phosphate buffer pH 7.2–7.4, 0.3% Triton X-100 and 0.2% gelatin, for 1 h at room temperature. Following this, the cells were incubated with anti-NF-κBp65 antibody for 2 h at room temperature. […] The fluorescent signals were then quantitated by selecting the nuclear and cytoplasmic regions in different fields using the NTS imaging software. […]

[3] = test system: Akt phosphorylation in HUVECs; experiment: Akt phosphorylation western blot; format: cell-based, human
Description: (§1) Nuclear and cytoplasmic extracts were fractionated on SDS-PAGE with equal amount of proteins per well and transferred onto PVDF membranes and those membranes were incubated with appropriate primary antibodies and treated with HRP conjugated secondary antibodies followed by detection with DAB-H2O2 system. β-tubulin, α-actin and Lamin B1 were used as loading controls. Antibodies against NF-κBp65, phosphoNF-κBp65, IκBα, phosphoIκBα, IKK-β, Akt, phosphoAkt (Ser473) and phosphoAkt (Thr308) were used.

[4] = Aqueous solubility of MPG derivatives; format: physicochemical
Description: Stock solutions of MPG and its derivatives (Tables S1, S2, S3) were prepared either in dimethylsulphoxide (DMSO) or cell culture medium. MPG and its derivatives were diluted to working concentrations in cell culture medium.

[5] = test system: VCAM-1 mRNA in endothelial cells; experiment: RT-PCR of VCAM-1 transcript; format: cell-based, human; conditions: 400 µM pretreatment, TNF-α 10 ng/ml 4 h
Description: (§2) In order to examine whether MPTAG reduced the mRNA transcript levels of cell adhesion molecules genes, the endothelial cells were pretreated with 400 µM MPTAG for 2 h before induction with TNF-α for 4 h followed by RT-PCR. RNA was isolated from MPTAG-treated cells according to a modified guanidinium thiocyanate procedure. The expression of the transcripts for ICAM-1, VCAM-1 and E-selectin was evaluated by RT-PCR [45]. β-Actin levels expressed under similar conditions were used as a loading control.

[6] = test system: ERK1/2; experiment: ERK1/2 activation western blot; format: cell-based, human; conditions: MPTAG pretreatment
[7] = biological target: T1, PKA (Homo sapiens, UniProt P17612); experiment: PKA activity assay; format: cell-based
T1 construct: PKA was immunoprecipitated from the total cell lysates of unstimulated and TNF-α-stimulated endothelial cells; endogenous in cells; host or cells: HUVEC (treated with MPTAG, SQ 22536, H-89 ± TNF-α), anti-PKAα immunoprecipitate
Excerpt: PKA was immunoprecipitated from the total cell lysates of unstimulated and TNF-α-stimulated endothelial cells in presence and absence of treatment with agents indicated in Figure 7 using anti-PKAα (W-18) antibody. The immunoprecipates were subjected to kinase activity assay using a Bisamide Rhodamine 110 peptide substrate as per the instructions of the Profluor PKA assay kit (Promega, USA).

[8] = test system: IκBα in endothelial cells; experiment: IκBα phosphorylation and degradation western blot; format: cell-based, human; conditions: 400 µM, TNF-α 30 mins
Description: as §1

[9] = test system: E-selectin mRNA in endothelial cells; experiment: RT-PCR of E-selectin transcript; format: cell-based, human; conditions: 400 µM pretreatment, TNF-α 10 ng/ml 4 h
Description: as §2

[10] = test system: TNF-α-induced VCAM-1 expression on human endothelial cells; experiment: Cell-ELISA for VCAM-1 expression; format: cell-based; conditions: added 2–4 h prior to TNF-α stimulation; data not shown
Description: The endothelial cells were incubated with or without MPG and its derivatives at various concentrations for 2 h followed by treatment with TNF-α (10 ng/ml) for 16 h for ICAM-1 and VCAM-1 expression and 4 h for E-selectin expression. A Cell-ELISA was used to assess the expression of ICAM-1, VCAM-1 and E-selectin on the surface of endothelial cells as described previously.

[11] = test system: PI-3K; experiment: PI-3K activity assay; format: cell-based, human; conditions: pretreatment, HUVECs
Excerpt: The catalytic domain of PI-3K was immunoprecipitated from the stimulated and unstimulated endothelial in presence and absence of various compound treatment using an anti-p85α (N-18) antibody. The immunoprecipated proteins were subjected to kinase activity assay using a PI substrate, diC8 followed by detection of the PI(3)P as per the instructions of the Class III PI-3kinase kit (Echelon, USA).

NF-κB-regulated luciferase activity [1]: significantly inhibited
water solubility [4]: completely water soluble
PKA activity in unstimulated HUVECs, MPTAG and SQ 22536 added together ([7]; MPTAG + SQ 22536): remained increased
PKA activity in TNF-α-stimulated HUVECs ([7]; MPTAG alone or together with SQ 22536): restored PKA activity
Compound: CC(=O)OC[C@H]1O[C@@H](Oc2c(C)occc2=O)[C@H](OC(C)=O)[C@@H](OC(C)=O)[C@@H]1OC(C)=O [MPTAG, 2-methyl-pyran-4-one-3-O-β-D-2′,3′,4′,6′-tetra-O-acetyl glucopyranoside]
translocation of NF-κBp65 subunit into the nucleus [2]: prevented the translocation
protein levels of Akt ([3]; 400 µM): without affecting
inhibitory effect of MPTAG on TNF-α-induced Akt phosphorylation when H-89 added prior ([3]; H-89 added prior to MPTAG): completely abolished
TNF-α-induced phosphorylation of Akt at Ser473 ([3]; MPTAG 400 µM, TNF-α 30 mins): inhibited
TNF-α-induced phosphorylation of Akt at Thr308 ([3]; MPTAG 400 µM, TNF-α 30 mins): inhibited
TNF-α-induced Akt phosphorylation (Thr308), independently of wortmannin ([3]; with or without wortmannin before MPTAG): dose-dependently inhibited
TNF-α-induced VCAM-1 mRNA level [5]: significantly reduced
TNF-α-induced ERK activation [6]: no effect
TNF-α-induced degradation of IκBα [8]: inhibited
TNF-α-induced phosphorylation of IκBα [8]: inhibited
TNF-α-induced E-selectin mRNA level [9]: significantly reduced
inhibition of VCAM-1 [10]: maximum inhibition
TNF-α-induced PI-3K activity [11]: no effect

From article PMC3465347, “Regulation of NF-κB Activation through a Novel PI-3K-Independent and PKA/Akt-Dependent Pathway in Human Umbilical Vein Endothelial Cells” (PLoS ONE, 2012)
